The record followed here is publication PMC6278923 (Insect biochemistry and molecular biology, 2018).

For the experiment, the target named is T1, RproOR1•RproOrco (Rhodnius prolixus, UniProt T1H977).
T1 sequence (T1H977 1-409): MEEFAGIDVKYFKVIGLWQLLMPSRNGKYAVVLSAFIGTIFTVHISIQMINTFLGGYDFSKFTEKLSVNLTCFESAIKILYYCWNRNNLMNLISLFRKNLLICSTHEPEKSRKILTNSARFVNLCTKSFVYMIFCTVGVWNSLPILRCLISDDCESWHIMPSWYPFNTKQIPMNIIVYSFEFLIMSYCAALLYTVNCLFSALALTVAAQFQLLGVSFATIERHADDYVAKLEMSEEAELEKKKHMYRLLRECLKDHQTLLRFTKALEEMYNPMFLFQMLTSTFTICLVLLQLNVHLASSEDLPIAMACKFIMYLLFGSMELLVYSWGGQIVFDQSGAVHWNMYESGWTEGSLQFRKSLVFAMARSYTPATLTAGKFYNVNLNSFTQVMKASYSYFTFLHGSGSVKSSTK
The experiment is described as follows: two-electrode voltage clamp, Xenopus oocytes. The note with it: agonist; -70 mV; coexpressed with RproOrco. Type of experiment: cell-based. (In general: Two-electrode voltage clamp is typically applied to oocytes expressing channels or transporters.)

Structures are written as SMILES.

As to `CC/C=C\CCOC(C)=O` [(Z)-3-hexenyl acetate], the “two-electrode voltage clamp, Xenopus oocytes” value is on record as “moderate responses to 3-methyl-1-butanol, methyl butyrate, (Z)-3-hexenyl acetate”. As for `CCCCC=O` [pentanal], the “two-electrode voltage clamp, Xenopus oocytes” value is recorded as “moderate responses to 3-methyl-1-butanol, methyl butyrate, (Z)-3-hexenyl acetate, pentanal”.
